Assay results reported in paper PMC6358909, “Synthesis and Biochemical Evaluation of Lid-Open D-Amino Acid Oxidase Inhibitors” (Molecules, 2019).

What was measured:
Human DAAO = target: T1, Human DAAO (Homo sapiens, UniProt P14920); experiment: KYNA enzyme inhibition assay (D-kynurenine substrate, fluorescence); assay type: biochemical; conditions: 5 µM FAD, pH 8, 37 °C 1 h, standard deviations in parenthesis
T1 construct: purchased TargetEx Ltd. (Dunakeszi, Hungary)
Procedure: The prepared compounds were tested as DAAO inhibitors with the KYNA enzyme inhibitory assay. Although D-serine is a natural substrate of DAAO, its metabolite is not suitable for fluorometric evaluation. However in the applied assay, D-kynurenine can be metabolized by DAAO [19] and the metabolite (KYNA) has a favorable fluorescence property. Thus it can be used for fluorescence measurements.
D-2-Amino-4-(2-aminophenyl)-4-oxobutanoic acid (D-KYN) was used to measure D-amino acid oxidase activity based on the protocol described in ref. [18, 20]. Human DAAO (purchased from TargetEx Ltd. (Dunakeszi, Hungary)) was used for the measurements. The buffer contained 20 mM TRIS-HCl and 100 mM NaCl (pH = 8). Flavin adenine dinucleotide (FAD—obtained from Sigma (St. Louis, MO, USA)) in 5 µM concentration was also included in the assay. Compounds were dissolved originally in DMSO and the measured samples were diluted with the buffer solution (the final DMSO concentration was always below 5%). The mixed solution was incubated at 37 °C for 1 h. After the enzymatic reaction, ZnCl2 dissolved in H2O was added and vortex-mixed. Single point measurements were performed at 20 µm inhibitor concentration. For the IC50 measurements, the inhibitors were used at 5 nM, 50 nM, 500 nM, 2.5 µM, 5 µM, 10 µM, 50 µM. Measurements were carried out on a Citation3 cell imaging multi-mode microplate reader (BioTek Instruments Inc., Winooski, VT, USA) with […]. The applied wavelengths were 340 nm and 396 nm.
Result from the coupled HRP/Amplex Red assay for compound 13
Compound 13 was evaluated in both the KYNA and the coupled HRP/Amplex red assays. Assay […]
HRP/Amplex assay KYNA assay […]
hDAAO original concentration 1 µg / 1500 µL buffer 1 µg / 400 µL buffer hDAAO assay concentration 0.25 µg / 1500 µL buffer 0.25 µg / 400 µL buffer FAD conc. in assay 5 µM 5 µM
Ligand conc. in assay 20 µM 20 µM
Incubation period No Yes (1 hour, 37 °C)
Type of the measurement Kinetic (45 min) single point detection
Detection fluorescent fluorescent
Assay interference Yes No
Ligand autofluorescence No No
Dose response curve obtained for compound 13 using the HRP/Amplex red assay
(1 picture or pasted object on this page, not shown here)

DAAO = tested on: DAAO; parameters: method as in PMID 25001371; conditions: cited from earlier work
hDAO = hDAO (Homo sapiens, UniProt P14920); experiment: Differential scanning fluorimetry (DSF) measurement; assay type: binding; conditions: for Tm: hDAO without inhibitor 59.4 °C; for ~ΔTm: shift versus hDAO without inhibitor
Procedure: We started with compounds 8 and 9 (Figure 3). […] The activity of this 3-Cl substituted derivative (11) was lower than 100 nM therefore we synthesized the 3-Me derivative (12). […] DAAO binding and activity of representative compounds have been confirmed in orthogonal differential scanning fluorometry (DSF) and the coupled Horseradish peroxidase (HRP)/Amplex Red assays, respectively (see Supplementary materials). The designed compounds were docked into the protein structure obtained from the complex of 8 by the removal of the ligand. […]
Scheme S4. Synthesis of the headgroup […]
Results from differential scanning fluorimetry (DSF) measurements
Compound Structure DSF measurement […]

Chain of hDAO (P14920 whole entry): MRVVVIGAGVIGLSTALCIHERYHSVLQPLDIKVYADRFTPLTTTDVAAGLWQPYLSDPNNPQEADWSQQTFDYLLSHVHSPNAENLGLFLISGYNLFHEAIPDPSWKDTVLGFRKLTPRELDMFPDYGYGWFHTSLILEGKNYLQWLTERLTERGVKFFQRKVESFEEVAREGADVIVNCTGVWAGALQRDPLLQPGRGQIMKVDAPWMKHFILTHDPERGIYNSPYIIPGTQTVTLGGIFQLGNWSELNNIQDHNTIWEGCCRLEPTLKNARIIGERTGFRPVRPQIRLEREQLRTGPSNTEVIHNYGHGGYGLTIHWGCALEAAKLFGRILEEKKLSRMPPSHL
T1 sequence (P14920 whole entry): as above

With O=c1cc(-c2cccc(Cl)c2)c2cc(CCc3cc(O)c(=O)[nH]n3)c(O)cc2o1 [Compound 11] the IC50 (Human DAAO) was 69 nM.

In the case of Cc1cccc(-c2cc(=O)oc3cc(O)c(CCc4cc(O)c(=O)[nH]n4)cc23)c1 [Compound 12], the IC50 (Human DAAO) is reported as 52 nM.

Compound O=c1cc(-c2ccc(Cl)cc2)c2cc(CCc3cc(O)c(=O)[nH]n3)c(O)cc2o1 [Compound 9] has an IC50 (Human DAAO) of 119 nM.

In the case of O=C(O)CCc1cc2c(-c3ccccc3)cc(=O)oc2cc1O [Compound 7], the “competitive D-serine inhibitory properties” value (DAAO) is given as “low nanomolar range”.

In the case of Cc1ccc(-c2cc(=O)oc3cc(O)c(CCc4cc(O)c(=O)[nH]n4)cc23)cc1 [Compound 10], the IC50 (Human DAAO) is reported as 474 nM.

For O=c1cc(-c2ccccc2)c2cc(CCc3cc(O)c(=O)[nH]n3)c(O)cc2o1 [Compound 8, reference compound], the IC50 (Human DAAO) was 112 nM, the Tm (hDAO) was 74.7 °C and the “~ΔTm” value (hDAO) was about 15.3 °C.

In the case of COc1cccc(-c2cc(=O)oc3cc(O)c(CCc4cc(O)c(=O)[nH]n4)cc23)c1 [Compound 13], the IC50 (Human DAAO) is reported as 73 nM, the Tm (hDAO) is reported as 72.0 °C and the “~ΔTm” value (hDAO) is reported as about 12.6 °C.
